Assay results reported in article PMC5681660, “Reduced hepatitis B and D viral entry using clinically applied drugs as novel inhibitors of the bile acid transporter NTCP” (Scientific Reports, 2017).
“Also recorded” adds a separate entry of the source. Like-named read-outs stand apart in the source and are kept apart here.

Legend:
U2OS cells = assay: WST-1 cytotoxicity, wildtype U2OS cells; settings: U2OS cells, 2 hours
HDV = HDV infection of HepaRG cells (HDAg immunofluorescence); type: cell-based, hepatitis delta virus; settings: HDAg positive cells, day 5; concentration-dependent
mouse NTCP = target: T1, mouse NTCP (Mus musculus, UniProt O08705); assay: Taurocholate uptake in U2OS cells transiently transfected with mouse NTCP; type: cell-based; settings: at the calculated IC50 value for hNTCP
T1 construct: expressed in transfected cells; host or cells: U2OS (transient transfection, PEI)
T1 sequence (O08705 1-362): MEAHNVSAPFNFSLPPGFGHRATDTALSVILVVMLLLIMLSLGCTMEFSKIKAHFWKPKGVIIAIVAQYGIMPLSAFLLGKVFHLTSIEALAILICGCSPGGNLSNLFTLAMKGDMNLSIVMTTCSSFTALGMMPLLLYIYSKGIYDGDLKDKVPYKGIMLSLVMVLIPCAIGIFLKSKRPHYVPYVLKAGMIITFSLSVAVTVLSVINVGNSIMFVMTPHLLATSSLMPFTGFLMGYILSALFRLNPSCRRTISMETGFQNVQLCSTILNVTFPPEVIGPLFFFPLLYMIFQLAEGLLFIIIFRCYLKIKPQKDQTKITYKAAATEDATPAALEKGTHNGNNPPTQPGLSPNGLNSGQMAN
Method: (§1) U2OS and MDCK cells were grown in Dulbecco’s modified Eagle’s medium (DMEM, Sigma-Aldrich), supplemented with 10% FCS (Gibco), 1% L-glutamine (Lonza), and 1% penicillin/streptomycin (Lonza). […] Transient transfection of U2OS cells with mouse NTCP (mNTCP) was done with PEI reagent (Brunschwig, Basel, Switzerland). Shortly, U2OS cells were seeded one day prior to transfection in 24-well plates. On the day of transfection, 0.5 µg DNA was mixed with 100 µl unsupplemented DMEM and 3 µg/µl PEI. After 10–15 minute incubation at RT, 20 µl of the transfection mix was added to each 24-well. Transfected cells were used in further experiments 48–72 hours later. Cell lines were passaged twice a week at a confluence of 80%, and incubated in a humidified atmosphere of 37 °C + 5% CO2.
(§2) For MDCK or MDCK-hASBT cells 70.000 cells/well were plated in 24-well plates, followed by 24 hours 10 mM sodium butyrate (Sigma-Aldrich) stimulation the next day. Cells were used in the inhibition studies 24 hours (U2OS cell lines) or 48 hours (MDCK cell lines) later. Inhibition studies with mNTCP transiently transfected cells were conducted 48–72 hours after transfection.
(§3) Medium was aspirated from the wells and cells were washed once with 250 µL uptake buffer. Subsequently, cells were pre-incubated with drug in 150 µL uptake buffer for 10 minutes at 37 °C. Taurocholate uptake was initiated by addition of 100 µL uptake buffer containing taurocholate (final concentration 10 µM TC spiked with tritium-labeled TC) and cells were incubated for 2 minutes at 37 °C. Subsequently, cells were washed 4 times with ice-cold PBS and lysed with 0.05% SDS in water. Radioactivity was measured by liquid scintillation counting.

human ASBT = target: T2, human ASBT (Homo sapiens, UniProt Q12908); assay: Taurocholate uptake in MDCK-hASBT cells; type: cell-based; settings: compared with NTCP
T2 construct: expressed in transfected cells; gift of Paul Dawson; induced with sodium butyrate
T2 sequence (Q12908 1-348): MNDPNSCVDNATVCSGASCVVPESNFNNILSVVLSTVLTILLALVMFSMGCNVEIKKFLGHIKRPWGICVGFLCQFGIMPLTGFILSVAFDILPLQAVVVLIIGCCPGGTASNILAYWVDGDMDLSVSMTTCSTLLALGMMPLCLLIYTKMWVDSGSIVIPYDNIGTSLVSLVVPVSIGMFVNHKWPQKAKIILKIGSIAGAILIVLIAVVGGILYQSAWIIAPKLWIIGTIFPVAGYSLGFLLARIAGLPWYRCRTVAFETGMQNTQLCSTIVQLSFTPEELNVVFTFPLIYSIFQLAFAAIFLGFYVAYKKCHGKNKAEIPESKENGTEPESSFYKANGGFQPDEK
Method: as §1, §2, §3

U2OS-HA-hNTCP cells = settings: 2 hours
HBV [1] = settings: for HBV infection in HepaRG cells (in words): HBeAg, HBsAg, HBcAg, concentration-dependent; for number of HBcAg positive stained cells: HepaRG cells, day 10 post HBV infection, 50 µM
human NTCP [2] = target: T3, human NTCP (Homo sapiens, UniProt Q14973); assay: Taurocholate uptake inhibition studies in U2OS-HA-hNTCP cells; type: cell-based; set-up: HA; expressed in transfected cells; settings: for concentration at which NTCP was inhibited in repeated measurements of TC-uptake and Myrcludex B binding: both TC uptake and Myrcludex B binding; for Taurocholate uptake into U2OS-HA-hNTCP cells (in words): increasing drug concentrations
T3 sequence (Q14973 1-349): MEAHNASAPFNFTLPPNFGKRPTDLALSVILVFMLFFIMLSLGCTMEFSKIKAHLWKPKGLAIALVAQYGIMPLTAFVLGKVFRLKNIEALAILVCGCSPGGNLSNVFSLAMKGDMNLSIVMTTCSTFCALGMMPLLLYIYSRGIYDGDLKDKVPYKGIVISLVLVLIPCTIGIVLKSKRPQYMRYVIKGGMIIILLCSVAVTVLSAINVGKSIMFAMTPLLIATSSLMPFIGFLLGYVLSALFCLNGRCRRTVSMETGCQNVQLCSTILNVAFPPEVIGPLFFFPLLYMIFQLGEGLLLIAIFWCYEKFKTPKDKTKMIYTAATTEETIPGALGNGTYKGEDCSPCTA
Method: as §2, §3

human NTCP [3] = target: T3, human NTCP; assay: Myrcludex B-FITC binding by confocal microscopy in U2OS-HA-hNTCP cells; set-up: HA; expressed in transfected cells; settings: for Myrcludex B-FITC fluorescence / binding to U2OS-HA-hNTCP cells (in words): co-administration with increasing amounts of drug; for ≥50% loss of Myrcludex B binding to hNTCP (concentration): confocal microscopy, 0.2 µM Myrcludex B-FITC, drug 1, 10, 100 µM, concentration at which binding inhibited minimally 50%
Method: After 24 hours, medium was aspirated and cells were washed once with 300 µl Leibovitz’s L-15 Medium (Invitrogen). A 30 minute incubation period followed in which all cells were incubated with 0.2 µM Myrcludex B-FITC with or without drug (1, 10, 100 µM) and Hoechst (1/1000) in 300 µL Leibovitz’s L-15 Medium. Cells were washed twice with Leibovitz’s L-15 Medium and subsequently 400 µL Leibovitz’s L-15 Medium was added. Live cell fluorescent imaging was performed using a Leica SP8X-SMD confocal microscope with fully enclosed incubation at 37 °C. A 63x oil objective was used and images were captured while the cells were consecutively excited at 490 nm (FITC) 350 nm (Hoechst). ImageJ software (National Insititutes of Health, Bethesda, MD) was employed for data analysis.

human NTCP [4] = target: T3, human NTCP; assay: Screening taurocholate uptake assay (96-well, [14C]taurocholate, 10 µM drug); settings: for Ranking score: ranking over the functional and the binding screening assay; for B-score functional assay: screening taurocholate uptake, 10 µM drug
[5] = WST-1 cytotoxicity, wildtype U2OS cells; settings: human
in vitro = settings: human, U2OS-HA-hNTCP cells
HBV [6] = assay: HBV infection of primary human hepatocytes (literature); type: cell-based, hepatitis B virus
HBV [7] = settings: primary human hepatocytes, cited from earlier work
[8] = test system: HDV RNA and HBV DNA serum levels; settings: chronic hepatitis delta patients, 24 weeks; cited from earlier work
human NTCP [9] = target: T3, human NTCP; assay: Sodium dependent tauro-ursodeoxycholic acid uptake into U2OS-HA-hNTCP cells; type: cell-based; set-up: HA; expressed in transfected cells
Method: Figure 4 Myrcludex B inhibits uptake of tauro-ursodeoxycholic acid. Sodium dependent tauro-ursodeoxycholic acid uptake into U2OS-HA-hNTCP cells was reduced in the presence of Myrcludex B. N = 6 wells/condition, data are depicted as mean ± SD.
Buffers were set to pH 7.4, at room temperature. After washing, cells were pre-incubated for 10 minutes with drugs in 50 µL uptake buffer. […] After incubation, buffer was removed and cells were washed 2x with ice-cold PBS. Cells were lysed for a minimum of 30 minutes in 30 µL/well 0.05% SDS in water. When lysis was complete, 120 µL MicroScint™-20 (PerkinElmer) was added to the wells and radioactivity was measured by liquid scintillation counting.

[10] = HepaRG cells infected with HBV, supernatant day 7 to 10
[11] = U2OS-HA-hNTCP cells, concentrations 1 nM to 10 mM, read-out: IC50 for hNTCP-mediated TC uptake

Row | Compound | HDV infection in HepaRG cells (in words) (HDV) | inhibition of mouse Ntcp-mediated taurocholate uptake compared with human NTCP (mouse NTCP) | inhibition of ASBT-mediated taurocholate uptake (human ASBT) | HBV infection in HepaRG cells (in words) (HBV [1]) | concentration effective in reducing HBeAg and HBsAg production (HBV [1]; [10]) [µM] | number of HBcAg positive stained cells (HBV [1]) | concentration at which NTCP was inhibited in repeated measurements of TC-uptake and Myrcludex B binding (human NTCP [2]; U2OS-HA-hNTCP cells) [µM] | IC50 (human NTCP [2]; [11]) [µM] | Taurocholate uptake into U2OS-HA-hNTCP cells (in words) (human NTCP [2]) | Myrcludex B-FITC fluorescence / binding to U2OS-HA-hNTCP cells (in words) (human NTCP [3]) | ≥50% loss of Myrcludex B binding to hNTCP (concentration) (human NTCP [3]) [µM] | Ranking score (human NTCP [4]) | B-score functional assay (human NTCP [4]) | viability at 2 h, 1 µM (in vitro) [%] | viability at 2 h, 10 µM (in vitro) [%] | viability at 2 h, 100 µM (in vitro) [%] | other results
1 | COc1cc(-c2ccc(N=Nc3ccc4c(S(=O)(=O)[O-])cc(S(=O)(=O)[O-])c(N)c4c3O)c(OC)c2)ccc1N=Nc1ccc2c(S(=O)(=O)[O-])cc(S(=O)(=O)[O-])c(N)c2c1O.[Na+].[Na+].[Na+].[Na+] [Chicago Sky Blue 6B] | reduced HBV/HDV infection | more capable of inhibiting mouse Ntcp; also recorded: more potent in inhibiting mouse NTCP | inhibited ASBT to a similar extent as NTCP; also recorded: inhibit ASBT in a concentration-dependent fashion | reduced HBV/HDV infection | 17 | severely reduced | ≤ 10 | 7.1 | reduced | reduced | ≥1 | 17.4642 | -3.126 | – | – | – | cell viability by WST-1 (U2OS cells; 1 µM): 91.0 ± 9.3%; cell viability by WST-1 (U2OS cells; 10 µM): 93.9 ± 5.4%; cell viability by WST-1 (U2OS cells; 100 µM): 108.7 ± 5.6%; cell viability by WST-1 (U2OS-HA-hNTCP cells; 1 µM): 87.8 ± 7.2%; cell viability by WST-1 (U2OS-HA-hNTCP cells; 10 µM): 95.8 ± 5.9%; cell viability by WST-1 (U2OS-HA-hNTCP cells; 100 µM): 110.9 ± 9.4%
2 | COc1cc(C(=O)NS(=O)(=O)c2ccccc2C)ccc1Cc1cn(C)c2ccc(NC(=O)OC3CCCC3)cc12 [Zafirlukast] | reduced HBV/HDV infection; also recorded: reduce | inhibited similarly as human NTCP | inhibited ASBT less effectively and at higher concentrations than observed for NTCP; also recorded: inhibit ASBT in a concentration-dependent fashion | reduced HBV/HDV infection; also recorded: reduce | 17 | severely reduced | ≤ 10 | 6.5 | reduced | reduced Myrcludex B-FITC fluorescence | ≥1 | 4.472 | -7.741 | 94.7 ± 12.7 | 87.1 ± 12.3 | 77.7 ± 8 | viability at 1 µM [5]: 87.7 ± 4.8%; viability at 10 µM [5]: 94.1 ± 2.7%; viability at 100 µM [5]: 73 ± 5.8%; decreased Myrcludex B binding (human NTCP [3]; at 10 µM): more than 50%
3 | CN(CCOc1ccc(CC2SC(=O)NC2=O)cc1)c1ccccn1 (stereo not drawn) [Rosiglitazone] | reduced HBV/HDV infection; also recorded: reduce | more capable of inhibiting mouse Ntcp; also recorded: more potent in inhibiting mouse NTCP | inhibited ASBT less effectively and at higher concentrations than observed for NTCP; also recorded: inhibit ASBT in a concentration-dependent fashion | reduced HBV/HDV infection; also recorded: reduce | – | severely reduced | – | – | – | – | – | – | – | 111 ± 4.4 | 106 ± 4.5 | 103 ± 6 | viability at 2 h, 1 µM ([5]; wildtype U2OS cells): 104 ± 7.2%; viability at 2 h, 10 µM ([5]; wildtype U2OS cells): 107 ± 3.4%; viability at 2 h, 100 µM ([5]; wildtype U2OS cells): 104 ± 2.5%; concentration effective in reducing HBsAg (HBV [1]; [10]): ≥ 50 µM; IC50 (human NTCP [2]): 5.1 µM
4 | Myrcludex B | – | – | – | – | – | – | – | – | – | – | – | – | – | – | – | – | fold lower concentration for blocking HBV infection than IC50 for bile acid transport (HBV [6]): at least 50 fold; IC50 (HBV [7]; read-out: concentration inhibiting HBV infection, HBeAg): 0.083 nM; IC50 (HBV [7]; read-out: concentration inhibiting HBV infection, HBsAg): 0.669 nM; HDV RNA and HBV DNA serum levels [8]: Largely reduced; sodium-dependent uptake of tauro-ursodeoxycholic acid (human NTCP [9]): largely inhibited; also recorded: reduced
